Laboratory results taken from patent publication US20210122757A1, “SPIROCYCLIC COMPOUNDS AS MODULATORS OF INDOLEAMINE 2,3-DIOXYGENASE” (PHENEX DISCOVERY VERWALTUNGS-GMBH, priority 2018, published 2021).

molecular target: T1, Indoleamine 2,3-dioxygenase (Homo sapiens, UniProt P14902); experiment: SKOV-3 Cellular Indoleamine 2,3-dioxygenase Assay; settings: SKOV-3 cells, 50 ng/ml Interferon gamma, 100 μM L-Tryptophan, 24 hours, N-Formylkynurenin fluorescence detection; read-out: cell based activity (IC50)
T1 construct: endogenous in cells; host or cells: SKOV-3 (ATCC HTB-77), stimulated with 50 ng/ml interferon gamma
T1 sequence (P14902 whole entry): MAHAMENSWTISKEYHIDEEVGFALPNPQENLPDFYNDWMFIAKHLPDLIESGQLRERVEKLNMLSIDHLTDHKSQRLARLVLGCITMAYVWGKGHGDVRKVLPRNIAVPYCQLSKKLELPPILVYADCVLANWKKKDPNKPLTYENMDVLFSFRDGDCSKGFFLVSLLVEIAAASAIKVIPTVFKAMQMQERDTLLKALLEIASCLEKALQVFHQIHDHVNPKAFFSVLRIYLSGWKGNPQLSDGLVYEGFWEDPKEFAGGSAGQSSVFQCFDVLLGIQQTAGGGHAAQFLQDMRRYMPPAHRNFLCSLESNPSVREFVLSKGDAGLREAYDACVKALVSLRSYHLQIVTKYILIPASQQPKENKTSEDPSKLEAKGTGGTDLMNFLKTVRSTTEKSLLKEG
Description: SKOV-3 Cellular Indoleamine 2,3-dioxygenase Assay
SKOV-3 cells were obtained from the American Type Culture Collection (ATCC® HTB-77™) and maintained in McCoy's medium (Pan Biotech) supplemented with 10% fetal bovine serum and 1% Penicillin/Streptomycin. Cells were kept at 37° C. in a humidified incubator with 5% CO2. For assay preparation, cells were seeded at a density of 2*10^5/ml into black clear bottom 96 well plates in 100 μl medium/well supplemented with 50 ng/ml Interferon gamma (eBioscience, Thermo Fisher Scientific). After cells fully adhered to the plate, dilution series of compounds were added in medium containing additional L-Tryptophan to a final L-Tryptophan concentration of 100 μM. The cells were incubated for 24 hours. Detection of produced N-Formylkynurenin was performed by addition of 3-Methylpiperidine to a final concentration of 200 mM. The plates were sealed and heated to 65° C. for 20 minutes in a water bath. After cooling the fluorescence of each well was recorded with a Victor™X4 (PerkinElmer) plate reader at an emission wavelength of 535 nm and excitation at 405 nm (Tomek et al.; Anal Bioanal Chem (2013) 405:2515-2524, Tomek et al.; Biochim Biophys Acta. 2015 September; 1850(9):1772-80).

| IC50 | SMILES |
| --- | --- |
| < 50 nM | CCC(C(=O)Nc1ccc(Cl)cn1)C1CCC2(CC1)COc1cc(C(F)(F)F)ccc12 (single isomer, unassigned) [Example 10d, N-(5-chloropyridin-2-yl)-2-(6-(trifluoromethyl)-2H-spiro[benzofuran-3,1′-cyclohexan]-4′-yl)butanamide] |
| < 50 nM | CC(c1nc2cc(Cl)ccc2[nH]1)C1CCC2(CC1)COc1cc(C(F)(F)F)ccc12 (single isomer, unassigned) [Example 11e, 5-Chloro-2-(1-(6-(trifluoromethyl)-2H-spiro[benzofuran-3,1′-cyclohexan]-4′-yl)ethyl)-1H-benzo[d]imidazole] |
| ≥ 50 nM | CC(C(=O)NC1Cc2ccc(F)cc21)C1CCC2(CC1)COc1cc(C(F)(F)F)ccc12 (single isomer, unassigned) [Example 12a] |
| ≥ 50 nM | CC(C(=O)NC1Cc2ccc(F)cc21)C1CCC2(CC1)COc1cc(C(F)(F)F)ccc12 (single isomer, unassigned) [Example 12b] |
| ≥ 50 nM | O=C(C[C@H]1CC[C@@]2(CC1)COc1cc(C(F)(F)F)ccc12)Nc1ccc(Cl)cc1F (single isomer, unassigned) [Example 14b, N-(4-chloro-2-fluorophenyl)-2-(6-(trifluoromethyl)-2H-spiro[benzofuran-3,1′-cyclohexan]-4′-yl)acetamide] |

The remaining lines, values behind:

| SMILES | IC50 |
| --- | --- |
| CCC(C(=O)Nc1ccc(Cl)cn1)C1CCC2(CC1)COc1cc(C(F)(F)F)ccc12 (single isomer, unassigned) [Example 10b, N-(5-chloropyridin-2-yl)-2-(6-(trifluoromethyl)-2H-spiro[benzofuran-3,1′-cyclohexan]-4′-yl)butanamide] | < 50 nM |
| CCC(C(=O)Nc1ccc(Cl)cn1)C1CCC2(CC1)COc1cc(C(F)(F)F)ccc12 (single isomer, unassigned) [Example 10c, N-(5-chloropyridin-2-yl)-2-(6-(trifluoromethyl)-2H-spiro[benzofuran-3,1′-cyclohexan]-4′-yl)butanamide] | < 50 nM |
| CCC(C(=O)Nc1ccc(Cl)cn1)C1CCC2(CC1)COc1cc(C(F)(F)F)ccc12 (single isomer, unassigned) [Example 10e, N-(5-chloropyridin-2-yl)-2-(6-(trifluoromethyl)-2H-spiro[benzofuran-3,1′-cyclohexan]-4′-yl)butanamide] | ≥ 50 nM |
| CC(c1nc2cc(Cl)ccc2[nH]1)C1CCC2(CC1)COc1cc(C(F)(F)F)ccc12 (single isomer, unassigned) [Example 11b, 5-Chloro-2-(1-(6-(trifluoromethyl)-2H-spiro[benzofuran-3,1′-cyclohexan]-4′-yl)ethyl)-1H-benzo[d]imidazole] | ≥ 50 nM |
| CC(c1nc2cc(Cl)ccc2[nH]1)C1CCC2(CC1)COc1cc(C(F)(F)F)ccc12 (single isomer, unassigned) [Example 11c, 5-Chloro-2-(1-(6-(trifluoromethyl)-2H-spiro[benzofuran-3,1′-cyclohexan]-4′-yl)ethyl)-1H-benzo[d]imidazole] | < 50 nM |
| CC(c1nc2cc(Cl)ccc2[nH]1)C1CCC2(CC1)COc1cc(C(F)(F)F)ccc12 (single isomer, unassigned) [Example 11d, 5-Chloro-2-(1-(6-(trifluoromethyl)-2H-spiro[benzofuran-3,1′-cyclohexan]-4′-yl)ethyl)-1H-benzo[d]imidazole] | < 50 nM |
| O=C(C[C@H]1CC[C@@]2(CC1)COc1cc(C(F)(F)F)ccc12)Nc1ccc(Cl)cc1F (single isomer, unassigned) [Example 14a, N-(4-chloro-2-fluorophenyl)-2-(6-(trifluoromethyl)-2H-spiro[benzofuran-3,1′-cyclohexan]-4′-yl)acetamide] | < 50 nM |
| C[C@H](C(=O)Nc1ccc(Cl)cc1)[C@H]1CC[C@@]2(CC1)COc1cc(C(F)(F)F)ccc12 [Example 3b, (S)—N-(4-Chlorophenyl)-2-((3S,4′r)-6-(trifluoromethyl)-2H-spiro[benzofuran-3,1′-cyclohexan]-4′-yl)propanamide] | < 50 nM |
